Where a SMILES comes first, the peptide text is derived from it. Bridges are numbered along the chain shown (N, C = ends). [ ]: non-standard residue; d: D form. The star is where a group is joined. Threoninol(2S,3R) = C[C@@H](O)[C@H](CO)N*
How the values were obtained:
[1] = target: Tyrosine-protein kinase Fyn (Homo sapiens, UniProt P06241); assay: biochemical; format: cell-based, Insect cells; settings: insect cells;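 further: enzymatic inhibition of Fyn kinase activity measured with Poly(Glu:Tyr) as the phosphorylation substrate; in other assays of this panel Not Active means under 50% inhibition at 10 µM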
Leukotriene C4 synthase = target: T1, Leukotriene C4 synthase (Cavia porcellus, UniProt A6XA80); format: tissue-based, Lung;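 further: enzyme inhibition assay of leukotriene C4 synthase, using LTA4 as the substrate; in other assays of this panel Not Active means under 50% inhibition at 10 µM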
T1 sequence (A6XA80 whole entry): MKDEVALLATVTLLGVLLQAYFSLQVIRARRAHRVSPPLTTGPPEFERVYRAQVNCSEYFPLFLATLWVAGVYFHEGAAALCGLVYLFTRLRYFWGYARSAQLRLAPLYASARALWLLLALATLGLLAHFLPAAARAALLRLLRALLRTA

[2] = DRUGMATRIX: Glutamate, NMDA, Agonism radioligand binding (ligand: [3H] CGP-39653); format: cell membranes, Rattus norvegicus, Wistar, Cerebral cortex, Membrane; settings: Not Active = under 50% inhibition at 10 µM
[3] = DRUGMATRIX: Phosphodiesterase PDE3 enzyme inhibition (substrate: [3H]cAMP + cAMP); format: tissue-based, Homo sapiens; settings: platelet; Not Active = under 50% inhibition at 10 µM
[4] = target: Sigma non-opioid intracellular receptor 1 (Homo sapiens, UniProt Q99720); assay: DRUGMATRIX: Sigma1 radioligand binding (ligand: [3H] Haloperidol); format: cell membranes, Jurkat, Membrane; settings: jurkat; Not Active = under 50% inhibition at 10 µM
Neutrophil elastase = target: T2, Neutrophil elastase (Homo sapiens, UniProt P08246); format: tissue-based;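 further: inhibition of neutrophil elastase enzyme activity, measured with a p-nitroanilide-linked peptide substrate; in other assays of this panel Not Active means under 50% inhibition at 10 µM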
T2 sequence (P08246 whole entry): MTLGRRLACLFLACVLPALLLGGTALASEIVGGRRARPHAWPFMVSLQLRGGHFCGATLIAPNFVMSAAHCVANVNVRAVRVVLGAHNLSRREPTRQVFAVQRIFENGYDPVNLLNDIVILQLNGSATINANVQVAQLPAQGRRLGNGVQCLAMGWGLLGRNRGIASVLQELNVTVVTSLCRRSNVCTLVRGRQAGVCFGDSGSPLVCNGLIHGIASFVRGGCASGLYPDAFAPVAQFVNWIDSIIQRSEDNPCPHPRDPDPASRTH

Cytochrome P450 2E1 = Cytochrome P450 2E1 (Homo sapiens, UniProt P05181); settings: bti-tn-5b1-4; further: in other assays of this panel Not Active means under 50% inhibition at 10 µM
Chain of Cytochrome P450 2E1 (P05181 whole entry): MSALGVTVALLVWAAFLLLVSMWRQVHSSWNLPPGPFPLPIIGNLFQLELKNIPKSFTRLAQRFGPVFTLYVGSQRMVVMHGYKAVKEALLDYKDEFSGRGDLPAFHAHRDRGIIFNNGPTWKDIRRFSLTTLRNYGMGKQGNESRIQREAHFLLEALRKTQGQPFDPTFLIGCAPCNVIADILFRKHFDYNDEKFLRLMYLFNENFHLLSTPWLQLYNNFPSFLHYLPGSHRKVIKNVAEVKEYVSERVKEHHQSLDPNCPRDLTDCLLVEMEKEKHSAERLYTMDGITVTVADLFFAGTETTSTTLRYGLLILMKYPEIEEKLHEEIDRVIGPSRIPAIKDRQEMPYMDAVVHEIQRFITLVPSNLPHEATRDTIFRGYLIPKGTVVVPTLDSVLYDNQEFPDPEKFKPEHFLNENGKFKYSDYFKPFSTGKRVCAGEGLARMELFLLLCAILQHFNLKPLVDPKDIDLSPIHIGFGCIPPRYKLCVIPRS

Chain of Tyrosine-protein kinase Fyn (P06241 whole entry): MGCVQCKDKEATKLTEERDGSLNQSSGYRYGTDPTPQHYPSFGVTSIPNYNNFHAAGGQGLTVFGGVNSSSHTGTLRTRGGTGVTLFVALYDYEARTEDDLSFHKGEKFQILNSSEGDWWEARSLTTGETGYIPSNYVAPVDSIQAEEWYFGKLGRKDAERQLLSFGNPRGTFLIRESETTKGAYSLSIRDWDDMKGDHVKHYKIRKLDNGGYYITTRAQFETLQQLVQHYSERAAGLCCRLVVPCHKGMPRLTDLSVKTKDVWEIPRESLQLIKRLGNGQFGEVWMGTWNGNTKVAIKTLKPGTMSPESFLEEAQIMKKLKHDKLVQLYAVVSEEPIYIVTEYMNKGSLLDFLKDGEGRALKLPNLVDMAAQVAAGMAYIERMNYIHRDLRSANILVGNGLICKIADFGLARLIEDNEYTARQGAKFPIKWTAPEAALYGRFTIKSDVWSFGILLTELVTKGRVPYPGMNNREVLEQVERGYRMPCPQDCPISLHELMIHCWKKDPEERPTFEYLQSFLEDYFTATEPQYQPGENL
Chain of Sigma non-opioid intracellular receptor 1 (Q99720 whole entry): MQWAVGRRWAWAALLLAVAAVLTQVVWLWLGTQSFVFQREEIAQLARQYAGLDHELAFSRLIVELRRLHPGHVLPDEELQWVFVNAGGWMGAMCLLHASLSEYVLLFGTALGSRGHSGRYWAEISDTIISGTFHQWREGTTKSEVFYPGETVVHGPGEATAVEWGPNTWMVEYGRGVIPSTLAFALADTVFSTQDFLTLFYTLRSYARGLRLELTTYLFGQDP

COc1ccccc1C(=O)N1CCC(Cc2ccccc2)CC1
Not Active: IC50 [1] | IC50 (Leukotriene C4 synthase) | IC50 [2] | Ki [2] | IC50 [3] | Ki [3] | IC50 [4] | IC50 (Neutrophil elastase) | IC50 (Cytochrome P450 2E1) | Ki (Cytochrome P450 2E1)

Cc1ccccc1C(=O)N1CCC(Cc2ccccc2)CC1
Not Active: IC50 [1] | IC50 (Leukotriene C4 synthase) | IC50 [2] | Ki [2] | IC50 [3] | Ki [3] | IC50 [4] | IC50 (Neutrophil elastase) | IC50 (Cytochrome P450 2E1) | Ki (Cytochrome P450 2E1)

O=C1CC[C@H](N2C(=O)c3ccccc3C2=O)C(=O)N1
Not Active: IC50 [1] | IC50 (Leukotriene C4 synthase) | IC50 [2] | Ki [2] | IC50 [3] | Ki [3] | IC50 [4] | IC50 (Neutrophil elastase) | IC50 (Cytochrome P450 2E1) | Ki (Cytochrome P450 2E1)

N=C(Nc1ccccc1)Nc1ccccc1
Not Active: IC50 [1] | IC50 (Leukotriene C4 synthase) | IC50 [2] | Ki [2] | IC50 [3] | Ki [3] | IC50 (Neutrophil elastase) | IC50 (Cytochrome P450 2E1) | Ki (Cytochrome P450 2E1)

C[C@@H](O)[C@H](CO)NC(=O)[C@@H]1CSSC[C@H](NC(=O)[C@H](N)Cc2ccccc2)C(=O)N[C@@H](Cc2ccccc2)C(=O)N[C@H](Cc2c[nH]c3ccccc23)C(=O)N[C@@H](CCCCN)C(=O)N[C@@H]([C@@H](C)O)C(=O)N1 (H-[dF]CF[dW]KTC-{Threoninol(2S,3R)}; disulfide 2-7)
Not Active: IC50 [1] | IC50 (Leukotriene C4 synthase) | IC50 [2] | Ki [2] | IC50 [3] | Ki [3] | IC50 [4] | IC50 (Neutrophil elastase) | IC50 (Cytochrome P450 2E1) | Ki (Cytochrome P450 2E1)

S=C=Nc1cccc2ccccc12 [1-NAPHTHYLISOTHIOCYANATE]
Not Active: IC50 [1] | IC50 (Leukotriene C4 synthase) | IC50 [2] | Ki [2] | IC50 [3] | Ki [3] | IC50 [4] | IC50 (Neutrophil elastase) | IC50 (Cytochrome P450 2E1) | Ki (Cytochrome P450 2E1)

C[C@](O)(CS(=O)(=O)c1ccc(F)cc1)C(=O)Nc1ccc(C#N)c(C(F)(F)F)c1 [(R)-BICALUTAMIDE]
Not Active: IC50 [1] | IC50 (Leukotriene C4 synthase) | IC50 [2] | Ki [2] | IC50 [3] | Ki [3] | IC50 [4] | IC50 (Neutrophil elastase) | IC50 (Cytochrome P450 2E1) | Ki (Cytochrome P450 2E1)

CCCC(=O)Nc1ccc(OCC(O)CNC(C)C)c(C(C)=O)c1 (stereo not given) [ACEBUTOLOL]
Not Active: IC50 [1] | IC50 (Leukotriene C4 synthase) | IC50 [2] | Ki [2] | IC50 [3] | Ki [3] | IC50 [4] | IC50 (Neutrophil elastase) | IC50 (Cytochrome P450 2E1) | Ki (Cytochrome P450 2E1)

CC(=O)Nc1ccc(O)cc1 [ACETAMINOPHEN]
Not Active: IC50 [1] | IC50 (Leukotriene C4 synthase) | IC50 [2] | Ki [2] | IC50 [3] | Ki [3] | IC50 [4] | IC50 (Neutrophil elastase) | IC50 (Cytochrome P450 2E1) | Ki (Cytochrome P450 2E1)

COc1cc2c(c3oc(=O)c4c(c13)CCC4=O)[C@@H]1C=CO[C@@H]1O2 [AFLATOXIN]
Not Active: IC50 [1] | Ki [1] | IC50 (Leukotriene C4 synthase) | Ki (Leukotriene C4 synthase) | IC50 [2] | Ki [2] | IC50 [3] | Ki [3] | IC50 [4] | Ki [4] | IC50 (Neutrophil elastase) | Ki (Neutrophil elastase) | IC50 (Cytochrome P450 2E1) | Ki (Cytochrome P450 2E1)

N=C(N)NC(=O)c1nc(Cl)c(N)nc1N [AMILORIDE]
Not Active: IC50 [1] | IC50 (Leukotriene C4 synthase) | IC50 [2] | Ki [2] | IC50 [3] | Ki [3] | IC50 [4] | IC50 (Neutrophil elastase) | IC50 (Cytochrome P450 2E1) | Ki (Cytochrome P450 2E1)

Cc1cc(=O)n(-c2ccccc2)n1C [ANTIPYRINE]
Not Active: IC50 [1] | IC50 (Leukotriene C4 synthase) | IC50 [2] | Ki [2] | IC50 [3] | Ki [3] | IC50 [4] | IC50 (Neutrophil elastase) | IC50 (Cytochrome P450 2E1) | Ki (Cytochrome P450 2E1)

CN1C(=O)COc2c(C(=O)NC3CN4CCC3CC4)cc(Cl)cc21 (stereo not given) [AZASETRON]
Not Active: IC50 [1] | IC50 (Leukotriene C4 synthase) | IC50 [2] | Ki [2] | IC50 [3] | Ki [3] | IC50 [4] | IC50 (Neutrophil elastase) | IC50 (Cytochrome P450 2E1) | Ki (Cytochrome P450 2E1)

O=C1CC2(CCCC2)CC(=O)N1CCCCN1CCN(c2ncccn2)CC1 [BUSPIRONE]
Not Active: IC50 [1] | IC50 (Leukotriene C4 synthase) | IC50 [2] | Ki [2] | IC50 [3] | Ki [3] | IC50 (Neutrophil elastase) | IC50 (Cytochrome P450 2E1) | Ki (Cytochrome P450 2E1)

O=NN(CCCl)C(=O)NCCCl [CARMUSTINE]
Not Active: IC50 [1] | IC50 (Leukotriene C4 synthase) | IC50 [2] | Ki [2] | IC50 [3] | Ki [3] | IC50 [4] | IC50 (Neutrophil elastase)

O=C(N[C@H](CO)[C@H](O)c1ccc([N+](=O)[O-])cc1)C(Cl)Cl [CHLORAMPHENICOL]
Not Active: IC50 [1] | IC50 (Leukotriene C4 synthase) | IC50 [2] | Ki [2] | IC50 [3] | Ki [3] | IC50 [4] | IC50 (Neutrophil elastase)

C[C@@H]1C[C@@H]([C@H](O)CC2CC(=O)NC(=O)C2)C(=O)[C@@H](C)C1 [CYCLOHEXIMIDE]
Not Active: IC50 [1] | IC50 (Leukotriene C4 synthase) | IC50 [2] | Ki [2] | IC50 [3] | Ki [3] | IC50 [4] | IC50 (Neutrophil elastase)

C/C=C/C[C@@H](C)[C@@H](O)[C@H]1C(=O)N[C@@H](CC)C(=O)N(C)CC(=O)N(C)[C@@H](CC(C)C)C(=O)N[C@@H](C(C)C)C(=O)N(C)[C@@H](CC(C)C)C(=O)N[C@@H](C)C(=O)N[C@H](C)C(=O)N(C)[C@@H](CC(C)C)C(=O)N(C)[C@@H](CC(C)C)C(=O)N(C)[C@@H](C(C)C)C(=O)N1C [CYCLOSPORINE]
Not Active: IC50 [1] | IC50 (Leukotriene C4 synthase) | IC50 [2] | Ki [2] | IC50 [3] | Ki [3] | IC50 [4] | IC50 (Neutrophil elastase)

NC(=O)NO [HYDROXYUREA]
Not Active: IC50 [1] | IC50 (Leukotriene C4 synthase) | IC50 [2] | Ki [2] | IC50 [3] | Ki [3] | IC50 [4] | IC50 (Neutrophil elastase)

COc1ccc2cc([C@H](C)C(=O)O)ccc2c1 [NAPROXEN]
Not Active: IC50 [1] | IC50 (Leukotriene C4 synthase) | IC50 [2] | Ki [2] | IC50 [4] | IC50 (Neutrophil elastase)

CCn1cc(C(=O)O)c(=O)c2cc(F)c(N3CCN(C)CC3)cc21 [PEFLOXACIN]
Not Active: IC50 [1] | IC50 (Leukotriene C4 synthase) | IC50 [2] | Ki [2] | IC50 [3] | Ki [3] | IC50 [4] | IC50 (Neutrophil elastase)

O=C(C1CCCCC1)N1CC(=O)N2CCc3ccccc3C2C1 (stereo not given) [PRAZIQUANTEL]
Not Active: IC50 [1] | IC50 (Leukotriene C4 synthase) | IC50 [2] | Ki [2] | IC50 [3] | Ki [3] | IC50 (Neutrophil elastase) | IC50 (Cytochrome P450 2E1) | Ki (Cytochrome P450 2E1)

Source: ChEMBL document CHEMBL1909046, “DrugMatrix in vitro pharmacology data”
